Experiments:
Format in all cases: in vivo
Monocots [1] = assay: Herbicidal activity, preemergence, monocot weeds (Table II); conditions: pre-emergence, 336 h, about 2 weeks, read-out: % control (percent of plants killed); for pest or weed control at 4483.4 g/ha: 4 lb./A.; for pest or weed control at 11208.5 g/ha: 10 lb./A.; for pest or weed control at 2241.7 g/ha: 2 lb./A.
Method: (§1) Using the procedure described below, diphenyl ethers were evaluated for control of the following weeds: […]
(§2) barnyardgrass (Echinochloa crusgalli) crabgrass (Digitaria spp.) nutsedge (Cyperus esculentus)
(§3) At 2 and 4 pounds per acre:
(§4) **Bermudagrass (Cynodon dactylon)
(§5) *downy brome (Bromus tectorum) foxtail (Setaria faberii)
(§6) Johnsongrass (Sorghum halepense) […]
(§7) quackgrass (Agropyron repens)
(§8) *ryegrass (Lolium perenne)
(§9) *yellow millet (Panicum miliaceum)
(§10) The following test procedure is employed. Seeds of selected crops and weeds are planted in soil in flats. For preemergence tests, the flats are treated with the test compound immediately after the planting. For postemergence tests, the seeds are allowed to germinate, and after 2 weeks the flats are treated with the test compound. The compound to be evaluated is dissolved in acetone, diluted with water, and sprayed over the flats using a carrier volume equivalent to 50 gallons per acre at the rate of application (pounds per acre, lb/A.) specified in the tables. About 2 weeks after the application of the test compound, the state of growth of the plants is observed and the phytotoxic effect of the compound is evaluated. Table II gives the average percent control achieved by the test compounds in terms of the percent of the plants which are killed by the compounds.

Dicots [2] = assay: Herbicidal activity, preemergence, dicot weeds (Table II); conditions: pre-emergence, 336 h, about 2 weeks, read-out: % control (percent of plants killed); for pest or weed control at 4483.4 g/ha: 4 lb./A.; for pest or weed control at 11208.5 g/ha: 10 lb./A.; for pest or weed control at 2241.7 g/ha: 2 lb./A.
Method: as §1
(§11) bindweed (Convolvulus arvensis) curly dock (Remex crispus) velvetleaf (Abutilon theophrasti) wild mustard (Brassica haber)
(§12) At 2 and 4 pounds per acre: […]
(§13) cocklebur (Xanthium pensylvanicum)
(§14) **coffeeweed (Sesbania macrocarpa)
(§15) *curly dock (Rumex crispus)
(§16) *lambsquarters (Chenopodium album) morningglory (Ipomoea purpurea)
(§17) *pigweed (Amaranthus retroflexus)
(§18) **ragweed (Ambrosia artemisiifolia)
(§19) *smartweed (Polygonum pensylvanicum)
(§20) **tomato (Lycopersicon esculentum)
(§21) *wild carrot (Daucus carota)
(§22) *wild mustard (Brassica haber)
as §10

Monocots [3] = assay: Herbicidal activity, postemergence, monocot weeds (Table II); conditions: post-emergence, 336 h, about 2 weeks, read-out: % control (percent of plants killed); for pest or weed control at 4483.4 g/ha: 4 lb./A.; for pest or weed control at 11208.5 g/ha: 10 lb./A.; for pest or weed control at 2241.7 g/ha: 2 lb./A.
Method: as §1, §2, §3, §4, §5, §6, §7, §8, §9, §10

Dicots [4] = assay: Herbicidal activity, postemergence, dicot weeds (Table II); conditions: post-emergence, 336 h, about 2 weeks, read-out: % control (percent of plants killed); for pest or weed control at 4483.4 g/ha: 4 lb./A.; for pest or weed control at 11208.5 g/ha: 10 lb./A.; for pest or weed control at 2241.7 g/ha: 2 lb./A.
Method: as §1, §11, §12, §13, §14, §15, §16, §17, §18, §19, §20, §21, §22, §10

SMILES	pest or weed control at 4483.4 g/ha (Monocots [1]) [%]	pest or weed control at 11208.5 g/ha (Monocots [1]) [%]	pest or weed control at 4483.4 g/ha (Dicots [2]) [%]	pest or weed control at 11208.5 g/ha (Dicots [2]) [%]	pest or weed control at 4483.4 g/ha (Monocots [3]) [%]	pest or weed control at 11208.5 g/ha (Monocots [3]) [%]	pest or weed control at 4483.4 g/ha (Dicots [4]) [%]	pest or weed control at 11208.5 g/ha (Dicots [4]) [%]	pest or weed control at 2241.7 g/ha (Monocots [1]) [%]	pest or weed control at 2241.7 g/ha (Dicots [2]) [%]	pest or weed control at 2241.7 g/ha (Monocots [3]) [%]	pest or weed control at 2241.7 g/ha (Dicots [4]) [%]
CCOc1cc(Oc2ccc(C(F)(F)F)cc2)ccc1[N+](=O)[O-] [Example 1]	76	42	45	35	57	82	58	100	–	–	–	–
COc1cc(Oc2ccc(C(F)(F)F)cc2Cl)ccc1[N+](=O)[O-] [Example 2]	97	97	80	100	99	100	100	100	–	–	–	–
CCCOc1cc(Oc2ccc(C(F)(F)F)cc2Cl)ccc1[N+](=O)[O-] [Example 5]	84	97	78	100	99	100	100	100	–	–	–	–
CCCCOc1cc(Oc2ccc(C(F)(F)F)cc2Cl)ccc1[N+](=O)[O-] [Example 6]	77	65	55	70	91	97	94	100	–	–	–	–
CCOc1cc(Oc2ccc(C(F)(F)F)cc2C#N)ccc1[N+](=O)[O-] [Example 7, 2-Cyano-α,α,α-trifluoro-p-tolyl-3-ethoxy-4-nitrophenyl ether]	65	61	57	60	75	100	77	100	65	54	82	80
CCCOc1cc(Oc2ccc(C(F)(F)F)cc2C#N)ccc1[N+](=O)[O-] [Example 8]	61	81	57	82	48	85	80	100	52	46	35	66
Cc1cc(Oc2ccc(C(F)(F)F)cc2C#N)ccc1[N+](=O)[O-] [Example 9]	90	99	66	92	97	100	81	100	81	67	82	75
O=[N+]([O-])c1ccc(Oc2ccc(C(F)(F)F)cc2Cl)cc1O [Example 10, 2-Chloro-α,α,α-trifluoro-p-tolyl-3-hydroxy-4-nitrophenyl ether]	70	–	100	–	67	–	98	–	66	70	17	85
C=CCOc1cc(Oc2ccc(C(F)(F)F)cc2Cl)ccc1[N+](=O)[O-] [Example 12]	86	–	96	–	77	–	100	–	72	93	99	100

Source: patent publication USRE31731E, “Herbicidal 4-trifluoromethyl-4-nitrodiphenyl ethers” (priority 1978, dated 1984)
